Measured values reported in EP1332756A2, “Compositions and methods for restoring a normal pattern of imprinting to cells” (priority 1996, dated 1998).
Read-outs that look alike come from different tables or passages of the source.

How the values were obtained:
[1] = tested on: tumor cells with LOI; test: In vitro effect of NCI lead compounds on LOI (allele ratio), saline as negative control; format: cell-based; conditions: for effective concentration / Allele ratio 1.0=complete LOI: in vitro; for Allele ratio 1.0=complete LOI: at the effective concentration, saline 1.0
Description: Based on the results showing that 5-aza-2'-deoxycytidine can restore normal imprinting to tumor cells with LOI, an analysis was performed using the drug discovery program described in Weinstein et al. (1997) Science 275:343-349, herein incorporated by reference. […] The highest correlations were as follows: 127716, 619003, 626883, 624646, 145118, 1850512, 626884, 626886, 622810, 176889, 622616, 620358, 619948, 622461, 624645, 15309, 638737, 294734, 112152, 153174 204816, 79037, 628082, 620319 (NCI reference numbers). These are considered lead compounds to determine whether they will restore normal imprinting or could be chemically modified to do so.
As a first test of this approach, the in vitro effect of 12 of these compounds were analyzed with saline as a negative control.

[2] = tested on: Cells having LOI, (Group A); test: NCI database search for compounds effective against cell lines with LOI (Group A) but not those without LOI (Group B); conditions: lead compounds still to be tested
[3] = tested on: cancer cells; test: Hollow fiber assay of in vivo cytotoxic effects; conditions: threshold for referral for xenograft testing
Source text: The compounds were additionally tested for their in vivo cytotoxic effects on cancer cells, using a hollow fiber assay as described in Hollingshead et al. (1995) Life Sci. 57:131-141, herein incorporated by reference. […] Thus, several new potential effective chemotherapeutics were identified for tumors and/or doses not taught in the literature.

[4] = tested on: IGF2; test: Allele-specific expression of IGF2 in tumor cells with LOI (RT-PCR, Apa I digestion); format: cell-based, human
Description: (§1) Cell Culture and Treatment With 5-azaCdR. JEG-3 human choriocarcinoma and COLO-205 human colon adenocarcinoma cell lines were obtained from ATTC. Cells were cultured in RPMI 1640, 10% fetal calf serum, 5% CO2, with antibiotics. 10^4-10^5 cells in 6 cm dishes were treated with 0.3-10 µM 5-azaCdR for 24 hours. Cultures were washed in Hank's buffered saline solution and grown to confluence. Concentrations of 0.3-3.0 µM caused minimal cytotoxicity (0-30%).
(§2) Analysis of Gene Expression. For quantitative analysis of gene expression, total RNA was isolated as described (Chomczynski, P. and Sacchi, N. (1987) Anal. Biochem. 162:156-159), and 10 µg was electrophoresed in 1.2% agarose gels containing formaldehyde, and was transferred to Hybond-N + membranes (Amersham) and hybridized as described with H19 and IGF2 probes (Steenrnan et al. (1994) Nature Genet. 7:433-439). Hybridization with GAPDH was used as a control for RNA loading. […] Each sample was analyzed in duplicate in the presence and absence of reverse transcriptase to exclude DNA contamination. Gels were blotted and hybridized with a ^32P-labeled internal specific oligonucleotide probe (Rainier et al. (1993) Nature 362:747-749), and quantified with a PhosphorImager (Molecular Dynamics).

[5] = tested on: IGF2; test: IGF2 methylation after 5-azaCdR treatment; format: cell-based, human; conditions: data not shown
Description: (§3) Analysis of DNA Methylation. For quantitative analysis of DNA methylation, genomic DNA was prepared as described (Rainier et al. (1993) Nature 362:747-749), and Southern analysis of methylation of the H19 promoter CpG island was performed as described (Reik et al. (1994) Hum. Mol. Genet. 4:2379-2385). Filters were hybridized with the 1.8 kb Pst I fragment of H19, which detects imprint-specific methylation (Steenman et al. (1994) Nature Genet. 7:433-439). For analysis of allele-specific methylation, 1 µg DNA was digested with BamH I or with BamH I plus Hpa

[6] = tested on: IGF2; conditions: normal human brain cells (Hu et al.); cited from earlier work
[7] = tested on: H19; test: Quantitative H19 expression in tumor cells with LOI (Northern blot, PhosphorImager); format: cell-based; conditions: Homo sapiens, 24 h, read-out: increase in H19 expression
Description: as §1
Analysis of Gene Expression. For quantitative analysis of gene expression, total RNA was isolated as described (Chomczynski, P. and Sacchi, N. (1987) Anal. Biochem. 162:156-159), and 10 µg was electrophoresed in 1.2% agarose gels containing formaldehyde, and was transferred to Hybond-N + membranes (Amersham) and hybridized as described with H19 and IGF2 probes (Steenrnan et al. (1994) Nature Genet. 7:433-439). Hybridization with GAPDH was used as a control for RNA loading. For analysis of allele-specific expression, 0.5 µg RNA was treated with DNase I (Boehringer Mannheim), heated to 95°C for 7 minutes, and RT-PCR was performed as described for both IGF2 and H19 (Rainier et al. (1993) Nature 362:747-749), although nested PCR using primers HP1 and HP2 (Hashimoto et al. (1995) Nat. Genet. 9:109-110) was performed for H19 analysis. PCR products were digested with either Apa I (for IGF2 analysis) or Alu I (for H19 analysis) as described (Tadokoro et al. (1991) Nucleic Acids Res. 19:6967), and electrophoresed on 4% Nusieve-agarose (3:1) gels. Each sample was analyzed in duplicate in the presence and absence of reverse transcriptase to exclude DNA contamination. Gels were blotted and hybridized with a ^32P-labeled internal specific oligonucleotide probe (Rainier et al. (1993) Nature 362:747-749), and quantified with a PhosphorImager (Molecular Dynamics).

[8] = Cytotoxicity of 24 hour 5-azaCdR treatment in cell culture; format: cell-based; conditions: human, jeg-3 and colo-205 cells, Concentrations of 0.3-3.0 µM
Description: as §1

[9] = tested on: H19; test: Allele-specific expression of H19 in tumor cells with LOI (RT-PCR, Alu I digestion); format: cell-based, human; conditions: JEG-3 cells
Description: as §1, §2

[10] = tested on: H19; test: Allele-specific methylation of H19 (Hpa II digestion, PCR, Alu I); format: cell-based, human; conditions: Hpa II digestion before PCR (Fig. 2B)
Description: as §3
After digestion, enzymes were inactivated by heating to 100° for 10 min. 50 ng digested DNA was added to the PCR reaction mix in Buffer F (Invitrogen), containing primers HP1 (5'-TACAACC-ACTGCACTACCTG-3') and H3 (5'-[…]-3') (Hashimoto et al. (1995) Nat. Genet. 9:109-110). One initial cycle (94°C, 4 min.) was followed by 28 cycles of 94°C, 1 min., 60°C, 1 min., 72° C, 1 min. PCR products (227 bp) were digested with Alu I, electrophoresed on 3% Nusieve/1% agarose gels, transferred to Hybond-N+ membranes (Arnersham), and hybridized with an internal oligonucleotide probe HP2 (5'-[…]-3'), and then quantified with a PhosphorImager (Molecular Dynamics). […]

[11] = tested on: H19 promoter CpG island; test: Southern analysis of methylation of the H19 promoter CpG island (Pst I and Sma I); format: cell-based, human
Description: as §3
In order to determine whether treatment with 5-azaCdR altered methylation of this imprint-specific region, cells were digested with Pst I and Sma I, as described (Reik et al. (1994) Hum. Mol. Genet. 3:1297-1301). Normal cells show approximately 50% methylation, since the paternal allele is methylated and the maternal allele is unmethylated (Steenman et al. (1994) Nature Genet. 7:433-439; Moulton et al. (1994) Nature Genet. 7:440-447; Reik et al. (1994) Hum. Mol. Genet. 3:1297-1301). Cells with LOI show increased methylation, reflecting abnormal methylation of the maternal allele (Steenman et al. (1994) Nature Genet. 7:433-439; Moulton et al. (1994) Nature Genet. 7:440-447; Reik et al. (1994) Hum. Mol. Genet. 3:1297-1301). […]

[12] = tested on: IGF2; conditions: mouse cells with maternal disomy for chromosome 7 (Eversole-Cire et al.); cited from earlier work

Compound	effective concentration [1]	Allele ratio 1.0=complete LOI [1]	total effectiveness score > 20 or an in vivo cell kill effect seen directly [3]	also measured
lankacyclin [compound 145118]	10^-4M	1.8	–	alteration in imprinting and/or cytotoxic effects ([1]; additional drugs tested): at least some alteration in imprinting and/or cytotoxic effects
CC(C)/C(Cl)=N\OC(=O)NNc1ccccc1 [compound 682841]	–	–	–	Predicted concentration [2]: 10^-4M
Nc1ccccc1 [compound 176889, benzenamine]	–	3.7	–	alteration in imprinting and/or cytotoxic effects ([1]; additional drugs tested): at least some alteration in imprinting and/or cytotoxic effects
COc1nc(NC2OC(CO)C(O)C(O)C2O)c(N)c(=O)[nH]1 (stereo not drawn) [compound 624646]	10^-4M	2.2	scored above the threshold for referral for xenograft testing	–
cis-CCNU [compound 153174]	10^-4M	1.6	–	–
Methyl-13-hydroxy-15-oxokaurenoate [compound 620358]	10^-4M	2.6	scored above the threshold for referral for xenograft testing	alteration in imprinting and/or cytotoxic effects ([1]; additional drugs tested): at least some alteration in imprinting and/or cytotoxic effects
C#CC[C@@]12CC(=O)C[C@@H]1CCC1(C2)OCCO1.C#CC[C@]12CC(=O)CC[C@H]1CC(=O)C2 [compound 619948]	10^-4M	1.8	–	–
Blue Platinum uracil [compound 180512]	10^-2M	45.0	–	alteration in imprinting and/or cytotoxic effects [1]: at least some alteration in imprinting and/or cytotoxic effects
gndimacrin [252940-S]	–	–	–	Predicted concentration [2]: 10^-4M
CC(=O)O[C@@H]1[C@@H](C)/C=C/C(C)(C)[C@H](OC(C)=O)C[C@@H](OC(C)=O)/C(C)=C/[C@H]2[C@@H](OC(=O)c3ccccc3)[C@@H](C)C[C@]12OC(C)=O [compound 666860, euphornin D]	–	–	–	Predicted concentration [2]: 10^-4M
CC1=CC(=O)C(C)=CC1=O [compound 15309, phlorone]	10^-3M	1.3	scored above the threshold for referral for xenograft testing	–
O=C1ON(Cc2ccccc2)C(c2ccccc2)N1c1ccccc1 (stereo not drawn) [compound 624645]	10^-4M	1.8	–	–
aspiculamycin HCL [200692-A]	–	–	–	Predicted concentration [2]: 10^-2M
Nc1ncn([C@H]2C[C@H](O)[C@@H](CO)O2)c(=O)n1 [5-azaCdR, 5-aza-2'-deoxycytidine]	–	–	scored above the threshold for referral for xenograft testing	allelic expression of IGF2 ([4]; COLO-205 colorectal carcinoma cells (data not shown)): a switch from biallelic to predominately monoallelic expression of IGF2; allelic expression of IGF2 ([4]; JEG-3 cells, single 24 hr treatment with increasing doses (0.3, 0.6, 1.0 µM)): unequal expression of the two IGF2 alleles, with preferential expression of the allele lacking the Apa I polymorphic site; IGF2 methylation [5]: not affected; allelic expression of IGF2 [6]: switched IGF2 from a pattern of preferential expression of one allele to equal biallelic expression; fold induction at 1 µM ([7]; COLO-205 cells, 1.0 µM (data not shown)): 20; fold induction at 0.3 µM ([7]; JEG-3 cells, 0.3 µM): 30; fold induction at 1 µM ([7]; JEG-3 cells, 1.0 µM): 50; cytotoxicity at 24 h [8]: 0 to 30%; allele-specific expression of H19 [9]: monoallelic expression of the allele containing the Alu I polymorphic site; allele specificity of altered H19 methylation [10]: one allele was preferentially affected; changes in DNA methylation of the H19 CpG island ([11]; COLO-205 (data not shown)): reproducible; methylation of the H19 CpG island ([11]; after treatment with 0.3 or 1.0 µM (Fig. 2A), normal cells approximately 50%): approximately 50%; expression of the maternal IGF2 gene [12]: epigenetic activation of the normally silent maternal IGF2 gene
C/C=C1/C(=O)O[C@]23C=C[C@@H]4C(C(=O)OC)=CO[C@H](O[C@@H]12)[C@@H]43 [compound 112152, plumericine]	10^-3M	1.2	scored above the threshold for referral for xenograft testing	–
